Measurements: patent US20250332173A1, “COMPOUNDS AND METHODS FOR MODULATING NUCLEIC ACID SPLICING” (REMIX THERAPEUTICS INC., priority 2021, published 2025)

How the values were obtained:
Target C = test: HiBiT protein abundance assay, Target C HiBiT K562 cell line; type: cell-based; details: Homo sapiens; HiBiT lytic detection, modified K562 cells, 24 hours, top dose 10 μM; read-out: Effect on protein abundance, Target C (IC50)
Description: • Promega Nano-Glo HiBiT Lytic Detection System (cat #N3030) • Corning 384-well TC-treated microplates (cat #3570) • Synthego Engineered Cells Knock-In Clones
Cells were maintained in IMDM with 10% FBS. Before the assay, cells were diluted with […] growth media (IMDM+[…] media) and were seeded in a 384-well plate at a density of 10,000 cells/well (for each cell line listed in Table 5). Each compound was prepared as a 10-point 3-fold serial dilution in DMSO with the top dose at a final concentration of 10 μM in the well. Unmodified K562 cells were added at the previously specified density with DMSO to serve as an assay baseline and positive control (PC) and DMSO only with the respective modified cell lines was added to the negative control (NC) columns. Final DMSO concentration was kept at or below 0.25%. Treated cell plates were placed in an incubator at 37° C. with […] for 24 hours. After 24 hours, 25 μL of Complete HiBit Lytic reagent was added to each well at room temperature (e.g. one plate requiring 10 mL Lytic Buffer, 100 μL LgBiT Protein, 200 μL Lytic Substrate), shaken for 5 minutes at 600 RPM, then left to sit for 10 minutes for signal to stabilize before reading on a Spark Cyto plate reader (Tecan) with a 500 ms measurement time.
To determine compound effects on protein abundance of each target in Table 5, the percent response for each respective cell line was calculated at each compound concentration as follows:
For the normalized response at each concentration, a four-parameter logistical regression was fit to the data and the response was interpolated at the […] to determine a concentration for protein abundance at […] the untreated control.

SMN2 mRNA = test: RT-qPCR splicing assay, SMN2 canonical junction (CJ) mRNA; type: cell-based, human; details: Homo sapiens; canonical junction qPCR panel, Table 5; read-out: SMN2 (decrease in CJ mRNA levels, IC50)
Summary of the method: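 Canonical-junction transcript levels in compound-treated A673 or K562 cells (24 h, up to 10 uM final) were determined from lysates by RT-qPCR with housekeeping-gene normalization.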

| IC50 (Target C) [nM] | IC50 (SMN2 mRNA) [nM] | Structure (SMILES) |
| --- | --- | --- |
| < 100 | < 100 | Cc1cn2nc(-c3ccc4c(=O)n(C5CCNCC5)ncc4n3)cc(C)c2n1 [Compound 1247] |
| 100 to 1000 | < 100 | Cn1cc2cc(-c3ccc4c(=O)n(C5CCNC6(CC6)C5)ncc4n3)c(O)cc2n1 (centres unmarked) [Compound 1306] |
| 1000 to 10000 | 100 to 1000 | CN1CCC(n2ncc3nc(-c4cc5cn(C)nc5cc4O)ccc3c2=O)CC1 [Compound 1307] |
| 100 to 1000 | < 100 | CCN1CCC(n2ncc3nc(-c4cc(C)c5nc(C)cn5n4)ccc3c2=O)CC1 [Compound 1308] |
| 100 to 1000 | < 100 | Cc1cn2nc(-c3ccc4c(=O)n(C5CCN(CCF)CC5)ncc4n3)cc(C)c2n1 [Compound 1309] |
| 1000 to 10000 | 100 to 1000 | CCN1CCC(n2ncc3nc(-c4cc5cn(C)nc5cc4O)ccc3c2=O)CC1 [Compound 1310] |
| 100 to 1000 | < 100 | Cc1cn2nc(-c3ccc4c(=O)n(C5CCN(C)CC5)ncc4n3)cc(C)c2n1 [Compound 1311] |
|  | < 100 | Cc1c(O)c(-c2ncc3c(=O)n(C4C[C@H](C)N[C@@H](C)C4)ccc3n2)cc2cn(C)nc12 (stereo partly drawn) [Compound 1455, 6-[(2S,6S)-2,6-dimethyl-4-piperidyl]-2-(6-hydroxy-2,7-dimethyl-indazol-5-yl)pyrido[4,3-d]pyrimidin-5-one] |
|  | 100 to 1000 | Cc1cn2cc(-c3cc(F)c4c(=O)n([C@@H]5CNC[C@H]5F)ccc4c3)cc(F)c2n1 [Compound 1456] |
|  | < 100 | Cc1cn2cc(-c3ncc4c(=O)n([C@@H]5CCNC6(CC6)C5)ccc4n3)cc(F)c2n1 [Compound 1457, 6-[(7R)-4-azaspiro[2.5]octan-7-yl]-2-(8-fluoro-2-methyl-imidazo[1,2-a]pyridin-6-yl)pyrido[4,3-d]pyrimidin-5-one] |
